The record followed here is patent US11351178B2, “Selective HDAC6 inhibitors” (ITALFARMACO S.P.A., priority 2017, dated 2022).

Data set [1] is described as follows: Stability in rat plasma. The format is in vitro ADME. The settings on record: after 4 hours, 37° C. The method in brief:
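Compounds incubated at 37° C in rat or human plasma at 50 μM (UV/HPLC) or 1 or 2 μM (LC-MS/MS) for 0–4 h. Reaction stopped with acidified acetonitrile on ice; percent remaining versus initial amount and plasma half-life calculated.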

Data set [2] in a line: Stability to Phase I metabolism in rat S9 liver fraction. The format is in vitro ADME. As to conditions: after 90 min, 37° C. The procedure, abridged: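 Phase I stability in human and rat hepatic S9 at 37 °C, sampled up to 90 min. Samples were stopped with acidified acetonitrile on ice, then quantified by HPLC-UV or LC-MS/MS.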
The target of data set [3] is T1, recombinant human HDAC6 (Homo sapiens, UniProt Q9UBN7).
T1 sequence (Q9UBN7 1-1215): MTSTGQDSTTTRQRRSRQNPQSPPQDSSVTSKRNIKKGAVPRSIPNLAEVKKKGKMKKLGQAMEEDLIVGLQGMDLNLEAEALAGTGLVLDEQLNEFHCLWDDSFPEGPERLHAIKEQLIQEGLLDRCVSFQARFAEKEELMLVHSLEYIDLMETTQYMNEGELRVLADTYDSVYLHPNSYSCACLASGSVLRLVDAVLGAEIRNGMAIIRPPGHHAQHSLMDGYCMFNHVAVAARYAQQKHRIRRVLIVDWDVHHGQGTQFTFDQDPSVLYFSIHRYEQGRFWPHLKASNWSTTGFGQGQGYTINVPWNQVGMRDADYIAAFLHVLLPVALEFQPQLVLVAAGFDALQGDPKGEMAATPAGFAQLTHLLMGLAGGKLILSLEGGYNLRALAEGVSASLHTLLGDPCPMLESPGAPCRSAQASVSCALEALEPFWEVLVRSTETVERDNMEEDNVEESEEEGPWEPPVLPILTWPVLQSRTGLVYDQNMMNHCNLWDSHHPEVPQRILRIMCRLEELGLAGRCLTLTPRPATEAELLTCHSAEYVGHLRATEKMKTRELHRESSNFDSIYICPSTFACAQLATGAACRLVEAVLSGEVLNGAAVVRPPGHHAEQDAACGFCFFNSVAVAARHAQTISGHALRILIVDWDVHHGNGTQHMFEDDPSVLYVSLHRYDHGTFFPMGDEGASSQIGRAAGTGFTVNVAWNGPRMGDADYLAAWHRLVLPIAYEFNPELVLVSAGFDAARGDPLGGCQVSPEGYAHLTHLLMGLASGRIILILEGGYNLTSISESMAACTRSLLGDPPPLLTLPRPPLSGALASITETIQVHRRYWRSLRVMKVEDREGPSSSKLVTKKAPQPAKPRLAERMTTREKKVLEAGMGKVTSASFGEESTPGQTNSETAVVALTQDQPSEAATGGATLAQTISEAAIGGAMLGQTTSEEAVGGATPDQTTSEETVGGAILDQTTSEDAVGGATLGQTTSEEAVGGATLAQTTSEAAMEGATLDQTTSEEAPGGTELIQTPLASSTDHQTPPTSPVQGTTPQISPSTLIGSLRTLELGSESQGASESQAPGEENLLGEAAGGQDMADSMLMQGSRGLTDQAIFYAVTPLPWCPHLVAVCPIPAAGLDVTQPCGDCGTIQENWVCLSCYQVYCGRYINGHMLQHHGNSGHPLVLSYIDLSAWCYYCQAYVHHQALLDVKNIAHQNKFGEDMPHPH
The data set is described as follows: Enzymatic screening on recombinant human HDAC6. Format: biochemical. The settings on record: Table 2; read-out: HDAC6 IC50. The method in brief:
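Substrates were Fluor de Lys, Fluor de Lys-Green or trifluoroacetyl-L-lysine, in 25 mM Tris-HCl pH 8, 130 mM NaCl, 0.05% Tween-20, 10% glycerol. They were added after isoform-dependent preincubation of recombinant human enzyme with compound at 30 °C, and the reaction also ran at 30 °C.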

Data set [4] relates to B 697 promyelocytic cell line. Briefly: Cytotoxicity on 697 cell line (CellTiter 96). The format is cell-based. As to conditions: 72 hours incubation, read-out: 697 TOXICITY
On the procedure:
(§1) Cytotoxic activity was evaluated on B 697 […] cell line for all synthesized compounds and on peripheral blood mononuclear cells (PBMCs) for compounds showing a good potency/selectivity profile.
(§2) Cells were seeded in plate (2×10^4 cells per well for 697, 5×10^5 cells per well for PBMCs). The test compounds (concentrations from 1.5 nM to 10000 nM for PBMCs and from 1 nM to 10000 nM for 697) were added after 24 hours and incubated 72 hours. The molecules cytotoxic activity was evaluated using CellTiter 96© Aqueous One Solution Cell Proliferation Assay (Promega), which measures the mitochondria function, following the manufacturer's instructions.

Data set [5] concerns peripheral blood mononuclear cells (PBMCs). Briefly: Cytotoxicity on PBMCs (CellTiter 96). Format: cell-based. As to conditions: PBMC, 72 h; read-out: PBMC TOXICITY (72 h). On the procedure: as §1, §2

Take `Cn1c(Sc2c(F)cc(C(=O)NO)cc2F)nnc1C(C)(C)c1cccnc1` [comp. 186, 3,5-difluoro-4-[[4-methyl-5-[1-methyl-1-(3-pyridyl)ethyl]-1,2,4-triazol-3-yl]sulfanyl]benzenecarbohydroxamic acid]: the “residual percentage in rat plasma” value in data set [1] is recorded as 75%. For the same molecule, the “residual percentage in rat S9 fraction” value in data set [2] is recorded as 9%. In addition, the IC50 in data set [3] is 23 nM; in data set [4], 10400 nM; in data set [5], no less than 100000 nM.

As for `O=C(NO)c1ccc(Cn2nnc(-c3nccc4ccccc34)n2)cc1` [comp. 87, 4-[[5-(1-isoquinolyl)tetrazol-2-yl]methyl]benzenecarbohydroxamic acid], in data set [1], the “residual percentage in rat plasma” value is listed as 0%. In addition, in data set [2], the “residual percentage in rat S9 fraction” value turned out to be 77%. In addition, the IC50 in data set [3] was determined as 20 nM; in data set [4], 6660 nM; in data set [5] it was 6000 nM.

With `Nc1ccc(-c2nnn(Cc3ccc(C(=O)NO)cc3)n2)cc1` [comp. 169, 4-[[5-(4-aminophenyl)tetrazol-2-yl]methyl]benzenecarbohydroxamic acid], the “residual percentage in rat plasma” value in data set [1] came out at 68%. For the same molecule, the “residual percentage in rat S9 fraction” value in data set [2] was 44%. For the same molecule, the IC50 in data set [3] amounted to 1 nM; in data set [4] it was 271 nM; in data set [5], 24 nM.

Turning to `O=C(NO)c1cc(F)c(Cn2nnnc2-c2ccco2)c(F)c1` [comp. 92, 3,5-difluoro-4-[[5-(2-furyl)tetrazol-1-yl]methyl]benzenecarbohydroxamic acid], the “residual percentage in rat plasma” value in data set [1] is 79%. Also, the “residual percentage in rat S9 fraction” value in data set [2] is given as 71%. The IC50 in data set [3] is 27 nM; in data set [4], greater than 10000 nM; in data set [5], greater than 10000 nM.

For `CN1CCN(c2cccc(-c3nnc(Sc4c(F)cc(C(=O)NO)cc4F)n3C)c2)CC1` [comp. 166, 3,5-difluoro-4-[[4-methyl-5-[3-(4-methylpiperazin-1-yl)phenyl]-1,2,4-triazol-3-yl]sulfanyl]benzenecarbohydroxamic acid], the IC50 in data set [3] was 9 nM; in data set [4], 61400 nM; in data set [5], greater than 10000 nM.

Regarding `O=C(NO)c1cc(F)c(Cn2nnc(-c3nccc4ccccc34)n2)c(F)c1` [comp. 93, 3,5-difluoro-4-[[5-(1-isoquinolyl)tetrazol-2-yl]methyl]benzenecarbohydroxamic acid], in data set [1], the “residual percentage in rat plasma” value is reported as 10%. Further, the “residual percentage in rat S9 fraction” value in data set [2] was found to be 53%. For the same molecule, the IC50 in data set [3] was 22 nM; in data set [4] it was greater than 10000 nM; in data set [5], greater than 10000 nM.

For the molecule `NCc1ccc(-c2nnn(Cc3c(F)cc(C(=O)NO)cc3F)n2)cc1` [comp. 175, 4-[[5-[4-(aminomethyl)phenyl]tetrazol-2-yl]methyl]-3,5-difluoro-benzenecarbohydroxamic acid], the figures for the IC50 in data set [3], in data set [4] and in data set [5] were 4 nM, 10100 nM and 1260 nM, respectively.

For `O=C(NO)c1ccc(Cn2nnnc2-c2ccc3ccccc3n2)cc1` [comp. 91, 4-[[5-(2-quinolyl)tetrazol-1-yl]methyl]benzenecarbohydroxamic acid], the “residual percentage in rat plasma” value in data set [1] is on record as 93%. Besides, in data set [2], the “residual percentage in rat S9 fraction” value came out at 8%. The IC50 in data set [3] was found to be 3 nM; in data set [4], 783 nM; in data set [5], 812 nM.

As to `COC(=O)c1ccc(-c2nnn(Cc3ccc(C(=O)NO)cc3)n2)nc1` [comp. 156, methyl 6-[2-[[4-(hydroxycarbamoyl)phenyl]methyl]tetrazol-5-yl]pyridine-3-carboxylate], the IC50 in data set [3] is 61 nM; in data set [4], 1570 nM; in data set [5], greater than 10000 nM.

In the case of `Cc1nc(N2CCOCC2)sc1-c1nnc(Sc2c(F)cc(C(=O)NO)cc2F)n1C` [comp. 9, 3,5-difluoro-N-hydroxy-4-((4-methyl-5-(4-methyl-2-morpholinothiazo-5-yl)-4H-1,2,4-triazol-3-yl)thio)benzamide], the “residual percentage in rat plasma” value in data set [1] amounted to 106%. Besides, the “residual percentage in rat S9 fraction” value in data set [2] is recorded as 75%. The IC50 in data set [3] is 79 nM; in data set [4], greater than 10000 nM; in data set [5], greater than 10000 nM.

In the case of `Cn1c(Cc2cccc3cccnc23)nnc1Sc1c(F)cc(C(=O)NO)cc1F` [comp. 164, 3,5-difluoro-4-[[4-methyl-5-(8-quinolylmethyl)-1,2,4-triazol-3-yl]sulfanyl]benzenecarbohydroxamic acid], the IC50 in data set [3] was 45 nM; in data set [4], 1400 nM; in data set [5], 661 nM.

Turning to `Cn1c(Sc2c(F)cc(C(=O)NO)cc2F)nnc1-c1cccc(CN2CCOCC2)c1` [comp. 182, 3,5-difluoro-4-[[4-methyl-5-[3-(morpholinomethyl)phenyl]-1,2,4-triazol-3-yl]sulfanyl]benzenecarbohydroxamic acid], the IC50 in data set [3] was 16 nM; in data set [4] it was 50300 nM; in data set [5] it was no less than 100000 nM.

As for `Cn1c(Sc2c(F)cc(C(=O)NO)cc2F)nnc1-c1ccc(CN2CCCCC2)cc1` [comp. 16, 3,5-difluoro-N-hydroxy-4-((4-methyl-5-(4-(piperidin-1-ylmethyl)phenyl)-4H-1,2,4-triazol-3-yl)thio)benzamide], the “residual percentage in rat plasma” value in data set [1] turned out to be 75%. In addition, the “residual percentage in rat S9 fraction” value in data set [2] is 74%. The results for the IC50 in data set [3], in data set [4] and in data set [5] were 5 nM, 7880 nM and 7500 nM, respectively.

In the case of `Cn1c(Sc2c(F)cc(C(=O)NO)cc2F)nnc1-c1c(F)cccc1F` [comp. 165, 4-[[5-(2,6-difluorophenyl)-4-methyl-1,2,4-triazol-3-yl]sulfanyl]-3,5-difluoro-benzenecarbohydroxamic acid], the IC50 in data set [3] is 8 nM; in data set [4], 55300 nM; in data set [5], greater than 10000 nM.

With `Cn1c(Sc2c(F)cc(C(=O)NO)cc2F)nnc1C1(c2cccnc2)CC1` [comp. 178, 3,5-difluoro-4-[[4-methyl-5-[1-(3-pyridyl)cyclopropyl]-1,2,4-triazol-3-yl]sulfanyl]benzenecarbohydroxamic acid], the results for the IC50 in data set [3], in data set [4] and in data set [5] were 23 nM, 50300 nM and greater than 10000 nM, respectively.

In the case of `Cc1nc(N2CCOCC2)sc1-c1nnc(Cc2ccc(C(=O)NO)cc2)o1` [comp. 75, 4-[[5-(4-methyl-2-morpholino-thiazol-5-yl)-1,3,4-oxadiazol-2-yl]methyl]benzenecarbohydroxamic acid], the “residual percentage in rat plasma” value in data set [1] is on record as 116%. Moreover, the “residual percentage in rat S9 fraction” value in data set [2] came out at 75%. Moreover, the values for the IC50 in data set [3], in data set [4] and in data set [5] were 4 nM, 1200 nM and 514 nM, respectively.
